The text below walks through data of PubChem BioAssay AID504726 (Broad Institute, 2011).

Calls of active or inactive are those of the source.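 How the source made its calls: active means fitted half-maximal concentration for a cytotoxic signal drop no higher than ten times the top valid dose tested; inconclusive means flat curve between -70 and -30 percent, or an unreliable fit; inactive means flat within 30 percent, signal rise, or potency beyond limit.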

This experiment can be described thus: viability loss in HeLa cells – cell-based, 24 h, cherry-picked samples, cytotoxicity control, dose response (AID 504726).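 Further: 0% = DMSO neutral controls and -100% = mitoxantrone positive controls.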 The note with it: HeLa viability, CellTiter-Glo ATP luminescence, 24 h; at 35 µM (top of the series).
Turning to `CC(C)(C)OC(=O)C[C@@H]1C/C=C\C[C@H](CC(=O)N(CCO)Cc2ccccc2)C(=O)N[C@@H](c2ccccc2)COC1=O`, the activity change, negative = cytotoxicity was -9.09% (inactive).
On to `CC(C)CC(=O)Nc1nnc(CSCc2ccc(F)cc2)s1`, for which the activity change, negative = cytotoxicity was -9.25% (inactive).
As to `Cc1cc(C)nc(SCC(=O)N/N=C/c2cc(C)n(-c3ccccc3C)c2C)n1`, the activity change, negative = cytotoxicity is -7.55% (inactive).
For the compound `Cn1c(=O)c(NCCc2ccccc2)c2c3c(cccc31)C(=O)c1ccccc1-2`, the activity change, negative = cytotoxicity is -38.4% (inactive).
The same measure for `CCOc1ccc(-n2c(Cc3cc(=O)[nH]c(=O)[nH]3)nnc2SCc2cccnc2)cc1`: -1.5% (inactive).
As to `Cc1cc(=O)c2c([nH]1)c(C)cc1[nH]c(C)c(C)c12`, the activity change, negative = cytotoxicity is -3.16% (inactive).
Consider `Cc1ccccc1N1C(=O)c2cccc3c(N(C)CCO)ccc(c23)C1=O`, for which the activity change, negative = cytotoxicity is -13.3% (inactive).
As to `O=C(O)c1ccc(-n2cccc2/C=C2/NC(=O)N(c3cccc(Cl)c3)C2=O)cc1`, the activity change, negative = cytotoxicity was -3.84% (inactive).
The same measure for `Cc1cc(OCC(=O)OC(C)(C)C)c2c3c(c(=O)oc2c1)CCC3`: 0.477% (inactive).
For `COc1cccc(OCCCn2cc(/C=C3/C(=N)N4C=C(C)SC4=NC3=O)c3ccccc32)c1` the value was -7.08% (inactive); for `Cc1c(NC(=O)CCC2CCCCC2)cc(C(=O)N2CCOCC2)cc1[N+](=O)[O-]`, 0.409% (inactive).
For `COc1ccc(C)cc1NC(=O)C(OC(=O)c1cnccn1)c1ccccc1` (stereo not given) the value was -9.07% (inactive); for `CN1CC=C2C(C#N)=C(N)C(C#N)(C#N)[C@H](c3ccoc3)[C@H]2C1`, 0.209% (inactive).
In the case of `COc1cc(C(=S)N2CCN(c3cccc(Cl)c3)CC2)ccc1O`, the activity change, negative = cytotoxicity is 9.69% (inactive).
For the compound `COc1ccc(OCC(=O)N2CCN(c3cccc(C(F)(F)F)c3)CC2)cc1`, the activity change, negative = cytotoxicity was -8.78% (inactive).
The same measure for `COCCN(C(=O)CN1CCCc2ccccc21)c1c(N)n(Cc2ccccc2)c(=O)[nH]c1=O`: 3.65% (inactive); for `CCCC1(C2CCCC2)NC(=O)NC1=O` (stereo not given): 0.78% (inactive); for `Nc1ccc2nc3c(=O)[nH]c(=S)[nH]c3nc2c1`: -3.49% (inactive).
The same measure for `COc1ccc(/C=C/c2cc(C(F)(F)F)[nH]c(=O)n2)cc1OC`: -6.08% (inactive); for `O=c1c2c(nc3cc(-c4ccc(F)cc4)[nH]n13)CCC2`: -13.7% (inactive); for `CC(C)CC(=O)Nc1ccc(S(=O)(=O)N2CC3CC(C2)c2cccc(=O)n2C3)cc1` (stereo not given): 1.91% (inactive).
Take `O=C1c2cccc3c(O)ccc(c23)C(=O)N1Cc1ccco1`: the activity change, negative = cytotoxicity is 8.13% (inactive).
Turning to `CCNC(=O)COC(=O)c1cccc(Br)c1`, the activity change, negative = cytotoxicity was -0.098% (inactive).
The same measure for `CC[C@H](C)[C@H](NC(N)=O)C(=O)Nc1ccc(NC(C)=O)cc1`: 6.72% (inactive); for `Nc1c(/C=C2/C=CC(=O)C(O)=C2)c(=O)nc2sc(CC(=O)N3CCCC3)nn12`: -5.49% (inactive).
Consider `Cc1cc(-c2nnc(SCC(=O)Nc3ccccc3)n2C)no1`, for which the activity change, negative = cytotoxicity was -3.15% (inactive).
The same measure for `CCOC(=O)CCCn1c(C)nc(=O)c(-c2ccccc2)c1C`: 4.75% (inactive); for `CCCCn1c(=O)[nH]c2nc3cc(N)ccc3nc2c1=O`: -9.99% (inactive).
Regarding `Nc1ccc2ccc3cccc[n+]3c2c1`, the activity change, negative = cytotoxicity is -15.1% (inactive).
The same measure for `O=C(/C=N/NC(=O)c1ccc(Cl)cc1Cl)c1ccccc1`: 1.59% (inactive).
Take `Cc1nnc(NC(=O)CN2C(=O)NC3(CCCC3)C2=O)s1`: the activity change, negative = cytotoxicity was -0.18% (inactive).
As to `Nc1ccccc1C(=O)N1O[C@@H]2C=C[C@H]1CC2`, the activity change, negative = cytotoxicity is -9.71% (inactive).
Consider `Cc1cc(C)n(CC(=O)NNC(=O)CC(C)c2ccccc2)n1` (stereo not given), for which the activity change, negative = cytotoxicity was -9.44% (inactive).
The same measure for `CN(C)c1ccc(O)c2c1CC1CC3[C@@H](N(C)C)C(=O)C(C(N)=O)=C(O)[C@]3(O)C(=O)C1=C2O` (stereo not given in full): -1.73% (inactive); for `Cc1c(C#N)c(=O)c(-[n+]2ccccc2)c([S-])n1-c1ccc(Cl)cc1`: -8.57% (inactive); for `NC(=S)N/N=C/c1cn(CCC(=O)O)nc1-c1cccc(Br)c1`: -7.24% (inactive).
As for `Cc1ccc2c(c1)nnn2C1CCN(C(=O)c2cccs2)CC1`, the activity change, negative = cytotoxicity is -7.39% (inactive).
For `CCC(=O)Oc1ccc2c(c1)O/C(=C\c1ccco1)C2=O` the value was 4.02% (inactive).
Take `CCN(C(=O)c1cccc(S(=O)(=O)N2CCc3ccccc32)c1)C1CCS(=O)(=O)C1` (stereo not given): the activity change, negative = cytotoxicity is -1.74% (inactive).
For `CCc1ccc(C2CC(c3cccc(Cl)c3)n3nc(N)nc3N2)cc1` (stereo not given) the value was -1.95% (inactive).
The same measure for `CCN(CC)c1ccc2cc(S(=O)(=O)c3ccc(Cl)cc3)c(=O)oc2c1`: -13.6% (inactive); for `CC(C)c1ccc(NC(=O)Cn2c(=O)oc3cccnc32)cc1`: -7.38% (inactive); for `Cn1cc(/C=C2\C(=O)NC(=O)N(c3ccccc3)C2=O)c2ccccc21`: -26.5% (inactive).
The same measure for `O=C(c1ccc2c(c1)CCN2S(=O)(=O)c1ccccc1)N1CCN(c2ccc(F)cc2)CC1`: -13.2% (inactive); for `O=C(CCNc1ccc(Cc2ccncc2)cc1)c1cccc([N+](=O)[O-])c1`: -10% (inactive).
For the compound `Nc1nc(SCC(=O)N2CCCCC2)[nH]c(=O)c1NC(=O)c1cccs1`, the activity change, negative = cytotoxicity is -0.747% (inactive).
The same measure for `CC(=O)Oc1ccc2c(c1)Oc1cc(OC(C)=O)ccc1C21OC(=O)c2ccccc21`: -1.71% (inactive); for `CC(C)(C)OC(=O)N1CCC[C@H]1c1nnc(SCc2cccc(Cl)c2)o1`: -8.06% (inactive).
The same measure for `Nc1nc(-c2ccc(C(=O)O)cc2)cs1`: -2% (inactive).
On to `Cc1ccc(N(CC(=O)N2CCOCC2)S(C)(=O)=O)cc1`, for which the activity change, negative = cytotoxicity is -3.08% (inactive).
The same measure for `COc1cccc(OC)c1C(=O)Nc1cc(C)on1`: 0.727% (inactive); for `CCN(CC)C(=O)C1c2ccccc2Oc2ccccc21`: -12.1% (inactive); for `O=C(O)c1ccc2c(c1)C(=O)/C(=C\c1ccco1)C2=O`: 3.44% (inactive).
The same measure for `O=c1[nH]nc(CSCc2ccccc2Cl)[nH]1`: -3.66% (inactive); for `Cc1cc2nc3c(=O)[nH]c(=S)[nH]c3nc2cc1NC(=O)C(F)(F)F`: -3.95% (inactive).
